From ChEMBL document CHEMBL1201862, “PubChem BioAssay data set” (2004)
The source made the active and inactive calls.

Legend:
[1] = target: T1, Tyrosine-protein phosphatase non-receptor type 7 (Homo sapiens, UniProt P35236); format: functional
T1 sequence (P35236 whole entry): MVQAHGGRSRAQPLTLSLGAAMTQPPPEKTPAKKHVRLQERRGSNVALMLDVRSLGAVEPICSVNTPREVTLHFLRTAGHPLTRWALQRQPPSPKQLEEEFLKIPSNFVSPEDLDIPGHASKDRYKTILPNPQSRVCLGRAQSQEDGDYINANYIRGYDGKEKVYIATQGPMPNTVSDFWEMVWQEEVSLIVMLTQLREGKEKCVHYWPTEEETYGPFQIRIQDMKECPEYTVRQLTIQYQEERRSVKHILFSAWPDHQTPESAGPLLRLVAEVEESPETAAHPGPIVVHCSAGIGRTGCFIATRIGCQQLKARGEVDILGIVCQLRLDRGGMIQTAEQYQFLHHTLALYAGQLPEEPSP

[2] = target: T2, Bcl-2-like protein 10 (Homo sapiens, UniProt Q9HD36); test: Bcl-B/TR3 peptide binding disruption – biochemical, fluorescence polarization, FITC-TR3 peptide, selectivity assay for Bfl-1 inhibitor project, primary screen (AID 748);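 note: fluorescence polarization from a fluorescein-labelled TR3 peptide binding purified Bcl-B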
T2 sequence (Q9HD36 whole entry): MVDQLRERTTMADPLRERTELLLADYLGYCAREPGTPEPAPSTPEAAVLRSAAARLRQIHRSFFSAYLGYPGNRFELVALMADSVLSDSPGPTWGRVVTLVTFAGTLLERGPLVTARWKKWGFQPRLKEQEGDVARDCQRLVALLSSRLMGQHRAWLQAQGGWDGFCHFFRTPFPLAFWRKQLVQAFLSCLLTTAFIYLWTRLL

[3] = target: Glyceraldehyde-3-phosphate dehydrogenase (Homo sapiens, UniProt P04406)
Glyceraldehyde-3-phosphate dehydrogenase, sequence (P04406 whole entry): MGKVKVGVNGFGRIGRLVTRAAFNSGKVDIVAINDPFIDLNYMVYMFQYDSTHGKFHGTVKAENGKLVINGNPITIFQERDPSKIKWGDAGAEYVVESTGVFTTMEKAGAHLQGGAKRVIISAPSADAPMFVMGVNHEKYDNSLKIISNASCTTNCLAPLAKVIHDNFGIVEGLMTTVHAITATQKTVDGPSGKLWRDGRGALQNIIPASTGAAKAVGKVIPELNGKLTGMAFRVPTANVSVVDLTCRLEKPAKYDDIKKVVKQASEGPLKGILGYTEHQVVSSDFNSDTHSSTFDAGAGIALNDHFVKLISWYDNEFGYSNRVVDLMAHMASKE

[4] = target: T3, Estrogen receptor beta (Homo sapiens, UniProt Q92731);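 note: recombinant ER-beta bound to coactivator SRC1 peptide in presence of estradiol agonist; inhibitors block coactivator peptide binding and lower the FRET signal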
T3 sequence (Q92731 whole entry): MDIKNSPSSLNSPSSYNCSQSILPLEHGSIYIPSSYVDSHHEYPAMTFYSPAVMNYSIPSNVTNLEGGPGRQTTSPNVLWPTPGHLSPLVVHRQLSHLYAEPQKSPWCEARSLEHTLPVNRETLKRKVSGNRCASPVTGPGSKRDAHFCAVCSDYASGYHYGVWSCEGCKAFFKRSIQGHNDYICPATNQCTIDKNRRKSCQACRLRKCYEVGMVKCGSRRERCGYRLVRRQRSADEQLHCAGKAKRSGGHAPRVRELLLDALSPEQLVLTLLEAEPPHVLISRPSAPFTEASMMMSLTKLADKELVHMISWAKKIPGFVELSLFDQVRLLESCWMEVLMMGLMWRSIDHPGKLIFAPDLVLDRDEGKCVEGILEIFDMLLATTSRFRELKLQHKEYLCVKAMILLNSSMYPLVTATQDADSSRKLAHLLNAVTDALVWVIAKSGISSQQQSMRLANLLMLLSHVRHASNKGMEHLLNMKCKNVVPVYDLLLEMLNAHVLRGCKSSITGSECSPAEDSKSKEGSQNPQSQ

[5] = target: T3, Estrogen receptor beta; test: blockers of SRC-3 recruitment to ERβ – biochemical, ELISA, streptavidin-HRP readout, orthogonal assay, confirmation (AID 1060)
[6] = target: T4, Dual specificity protein phosphatase 6 (Rattus norvegicus, UniProt Q64346)
T4 sequence (Q64346 whole entry): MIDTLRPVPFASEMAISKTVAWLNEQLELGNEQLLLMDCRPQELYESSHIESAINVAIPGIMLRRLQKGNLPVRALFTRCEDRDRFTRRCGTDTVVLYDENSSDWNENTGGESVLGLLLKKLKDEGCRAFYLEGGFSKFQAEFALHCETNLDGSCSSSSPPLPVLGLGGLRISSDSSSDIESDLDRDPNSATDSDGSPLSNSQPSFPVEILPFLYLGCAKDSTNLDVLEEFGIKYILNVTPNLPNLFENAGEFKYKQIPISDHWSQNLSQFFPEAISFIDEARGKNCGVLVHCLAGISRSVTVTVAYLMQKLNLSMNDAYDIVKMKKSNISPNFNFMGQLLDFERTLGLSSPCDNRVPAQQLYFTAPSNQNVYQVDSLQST

[7] = target: T4, Dual specificity protein phosphatase 6; format: functional
[8] = target: T5, Carboxy-terminal domain RNA polymerase II polypeptide A small phosphatase 1 (Homo sapiens, UniProt Q9GZU7); test: CTDSP1 inhibitors, concentration-response, biochemical, absorbance readout, ultra-high-throughput screen actives (AID 540297); format: functional
T5 sequence (Q9GZU7 whole entry): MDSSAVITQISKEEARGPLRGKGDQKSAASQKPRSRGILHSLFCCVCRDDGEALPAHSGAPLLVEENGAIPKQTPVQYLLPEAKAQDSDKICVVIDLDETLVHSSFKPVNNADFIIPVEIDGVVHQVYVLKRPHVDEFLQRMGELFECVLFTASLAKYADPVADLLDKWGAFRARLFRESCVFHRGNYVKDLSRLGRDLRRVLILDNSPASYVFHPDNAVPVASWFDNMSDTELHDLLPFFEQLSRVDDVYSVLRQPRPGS

[9] = system: HEK293; test: EBV LMP1 TES2 canonical NF-kB signalling blockers – cell-based, HEK293, luciferase, cherry-pick, dose response (AID 588343); format: functional; conditions: Homo sapiens
[10] = target: Latent membrane protein 1 (Human herpesvirus 4 (strain B95-8), UniProt P03230); test: LMP1 TES1 pathway selectivity over dsRED control – imaging, HEK293T, dual-color eGFP/dsRED, cherry-picks, selectivity assay for LMP1 NF-kB inhibitor project, dose response (AID 588398); format: functional, cell-based
Latent membrane protein 1, sequence (P03230 whole entry): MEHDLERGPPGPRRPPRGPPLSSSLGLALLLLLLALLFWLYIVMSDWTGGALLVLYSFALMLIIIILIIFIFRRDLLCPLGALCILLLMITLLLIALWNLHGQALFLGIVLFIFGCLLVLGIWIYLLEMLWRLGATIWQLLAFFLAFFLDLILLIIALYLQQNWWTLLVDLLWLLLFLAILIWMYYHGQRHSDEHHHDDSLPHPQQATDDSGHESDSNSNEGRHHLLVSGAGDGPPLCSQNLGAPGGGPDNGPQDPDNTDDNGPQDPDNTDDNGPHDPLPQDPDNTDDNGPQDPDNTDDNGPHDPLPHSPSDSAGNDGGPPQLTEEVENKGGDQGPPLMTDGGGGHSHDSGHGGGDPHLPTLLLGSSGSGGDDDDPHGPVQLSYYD

[11] = system: INS1; test: INS-1E survival protection against cytokine death – cell-based, luminescence, retest, dose response (AID 449756); format: functional; conditions: Rattus norvegicus;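 note: cell death triggered by IL-1 beta plus TNF-alpha plus IFN-gamma mixture; protective hits raise ATP signal compared with cytokine alone wells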
[12] = reduction of Shn3 3'UTR-driven luciferase in osteoblasts – cell-based, Clone20 osteoblasts, firefly luciferase, cherry-picked, dose response (AID 624132); format: functional;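 note: firefly luciferase luminescence from reporter carrying the Shn3 3'UTR in osteoblasts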
[13] = loss of viability in HepG2 cells – cell-based, CellTiter-Glo, cherry-picked, cytotoxicity control for Shn3 inhibitor project, dose response (AID 624134); format: functional
[14] = non-specific 3'UTR reporter inhibition in Clone20-Shn3RL – cell-based, Renilla luciferase, cherry-picked, counter-screen for Shn3 inhibitor project, dose response (AID 624133); format: functional
[15] = system: CHO; test: CHO cell viability loss, potency – luminescence, cytotoxicity control for TLR9-MyD88 binding inhibitor project, dose response (AID 588339); format: functional, cell-based, hamster; conditions: Cricetulus griseus;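 note: CHO cells stably coexpressing TLR9 and MyD88 fusions from primary screen; compound exposure lasted 48 hours before viability readout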
[16] = target: T6, Endoribonuclease toxin MazF (Escherichia coli K-12, UniProt P0AE70); test: activation of MazEF endoribonuclease cleavage – biochemical, fluorescence, single-stranded RNA substrate, uHTS hits, dose response (AID 588481); format: functional
T6 sequence (P0AE70 whole entry): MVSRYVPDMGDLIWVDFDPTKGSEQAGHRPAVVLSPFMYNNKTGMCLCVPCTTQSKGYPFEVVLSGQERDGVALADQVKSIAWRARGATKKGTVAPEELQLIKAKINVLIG

[17] = target: Beta Lactamase (Pseudomonas aeruginosa, UniProt Q932Y6); test: BLA reporter interference, concentration series – BLA reporter cells, FRET fluorescence, artefact control for TLR9-MyD88 binding inhibitor project, dose response (AID 588341); format: cell-based;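 note: cell based assay in CHO-K1 cells stably expressing beta-lactamase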
Beta Lactamase, sequence (Q932Y6 whole entry): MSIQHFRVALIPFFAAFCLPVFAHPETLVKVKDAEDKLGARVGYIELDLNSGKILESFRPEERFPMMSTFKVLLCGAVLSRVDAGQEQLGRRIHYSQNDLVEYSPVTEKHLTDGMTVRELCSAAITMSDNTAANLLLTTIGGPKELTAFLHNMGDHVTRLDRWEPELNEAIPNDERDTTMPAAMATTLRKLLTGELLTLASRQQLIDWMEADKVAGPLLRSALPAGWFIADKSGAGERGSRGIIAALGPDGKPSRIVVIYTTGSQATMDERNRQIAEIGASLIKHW

[18] = target: T6, Endoribonuclease toxin MazF; test: substrate-only fluorescence increase artefacts – biochemical, single-stranded RNase substrate, counter-screen for MazEF activator project, dose response (AID 588502); format: functional
[19] = target: T7, Sentrin-specific protease 8 (Homo sapiens, UniProt Q96LD8); test: inhibition of human SENP8 cleavage activity – biochemical, luminescence, SAR follow-up (AID 504501); format: functional
T7 sequence (Q96LD8 whole entry): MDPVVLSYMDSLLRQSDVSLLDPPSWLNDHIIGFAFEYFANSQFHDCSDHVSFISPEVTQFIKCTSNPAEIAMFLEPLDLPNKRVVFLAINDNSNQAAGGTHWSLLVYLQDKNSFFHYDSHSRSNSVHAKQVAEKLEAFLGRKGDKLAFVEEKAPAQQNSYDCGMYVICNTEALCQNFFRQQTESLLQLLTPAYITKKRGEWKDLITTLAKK

[20] = target: T8, Caspase-3 (Homo sapiens, UniProt P42574); test: SAR Analysis of small molecule inhibitors of Sentrin-specific proteases (SENPs) using a Caspase-3 Selectivity assay. [Related pubchem assays (depositor defined):AID2540, AID2599, AID434973, AID489001]; format: functional
T8 sequence (P42574 whole entry): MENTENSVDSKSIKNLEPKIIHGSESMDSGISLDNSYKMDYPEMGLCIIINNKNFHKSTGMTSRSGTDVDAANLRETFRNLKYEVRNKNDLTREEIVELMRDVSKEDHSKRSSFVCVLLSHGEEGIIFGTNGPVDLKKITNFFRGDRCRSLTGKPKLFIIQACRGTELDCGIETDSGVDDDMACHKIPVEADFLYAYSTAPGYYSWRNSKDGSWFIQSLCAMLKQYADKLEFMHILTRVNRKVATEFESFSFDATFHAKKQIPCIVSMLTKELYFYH

[21] = target: T9, Sentrin-specific protease 6 (Homo sapiens, UniProt Q9GZR1); test: SAR Analysis of small molecule inhibitors of Sentrin-specific protease 6 (SENP6) using a Luminescent assay. [Related pubchem assays (depositor defined):AID2582, AID2599]; format: functional
T9 sequence (Q9GZR1 whole entry): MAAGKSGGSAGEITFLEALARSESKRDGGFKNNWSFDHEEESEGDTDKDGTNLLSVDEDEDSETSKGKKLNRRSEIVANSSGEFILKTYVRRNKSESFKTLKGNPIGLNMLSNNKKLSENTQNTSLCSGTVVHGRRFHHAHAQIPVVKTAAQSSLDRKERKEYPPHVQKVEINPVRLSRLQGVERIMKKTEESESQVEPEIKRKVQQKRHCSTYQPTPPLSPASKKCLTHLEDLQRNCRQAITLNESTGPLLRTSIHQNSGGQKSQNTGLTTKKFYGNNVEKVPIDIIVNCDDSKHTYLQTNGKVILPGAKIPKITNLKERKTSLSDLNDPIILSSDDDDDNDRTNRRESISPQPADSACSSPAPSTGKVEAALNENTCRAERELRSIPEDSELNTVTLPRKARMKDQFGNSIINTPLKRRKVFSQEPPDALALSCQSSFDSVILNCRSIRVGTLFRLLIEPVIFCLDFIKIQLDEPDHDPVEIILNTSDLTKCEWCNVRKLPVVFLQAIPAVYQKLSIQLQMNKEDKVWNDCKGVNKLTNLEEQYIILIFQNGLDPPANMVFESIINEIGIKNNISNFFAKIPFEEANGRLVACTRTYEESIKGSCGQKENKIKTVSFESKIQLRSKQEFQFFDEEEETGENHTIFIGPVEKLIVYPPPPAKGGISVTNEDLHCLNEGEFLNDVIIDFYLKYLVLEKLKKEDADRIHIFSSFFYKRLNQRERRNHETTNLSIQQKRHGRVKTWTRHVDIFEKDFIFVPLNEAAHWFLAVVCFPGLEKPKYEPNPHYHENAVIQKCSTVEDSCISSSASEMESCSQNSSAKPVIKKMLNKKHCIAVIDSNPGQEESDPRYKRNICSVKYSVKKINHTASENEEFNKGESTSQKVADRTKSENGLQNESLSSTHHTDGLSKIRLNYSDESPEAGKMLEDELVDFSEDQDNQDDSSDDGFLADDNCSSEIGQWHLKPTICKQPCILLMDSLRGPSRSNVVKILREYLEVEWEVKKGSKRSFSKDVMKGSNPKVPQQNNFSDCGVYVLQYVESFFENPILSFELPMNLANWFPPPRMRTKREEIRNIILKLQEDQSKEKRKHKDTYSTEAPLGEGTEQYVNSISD

[22] = target: T10, Sentrin-specific protease 7 (Homo sapiens, UniProt Q9BQF6); test: inhibition of human SENP7 cleavage activity – biochemical, luminescence, SAR follow-up (AID 504497); format: functional
T10 sequence (Q9BQF6 whole entry): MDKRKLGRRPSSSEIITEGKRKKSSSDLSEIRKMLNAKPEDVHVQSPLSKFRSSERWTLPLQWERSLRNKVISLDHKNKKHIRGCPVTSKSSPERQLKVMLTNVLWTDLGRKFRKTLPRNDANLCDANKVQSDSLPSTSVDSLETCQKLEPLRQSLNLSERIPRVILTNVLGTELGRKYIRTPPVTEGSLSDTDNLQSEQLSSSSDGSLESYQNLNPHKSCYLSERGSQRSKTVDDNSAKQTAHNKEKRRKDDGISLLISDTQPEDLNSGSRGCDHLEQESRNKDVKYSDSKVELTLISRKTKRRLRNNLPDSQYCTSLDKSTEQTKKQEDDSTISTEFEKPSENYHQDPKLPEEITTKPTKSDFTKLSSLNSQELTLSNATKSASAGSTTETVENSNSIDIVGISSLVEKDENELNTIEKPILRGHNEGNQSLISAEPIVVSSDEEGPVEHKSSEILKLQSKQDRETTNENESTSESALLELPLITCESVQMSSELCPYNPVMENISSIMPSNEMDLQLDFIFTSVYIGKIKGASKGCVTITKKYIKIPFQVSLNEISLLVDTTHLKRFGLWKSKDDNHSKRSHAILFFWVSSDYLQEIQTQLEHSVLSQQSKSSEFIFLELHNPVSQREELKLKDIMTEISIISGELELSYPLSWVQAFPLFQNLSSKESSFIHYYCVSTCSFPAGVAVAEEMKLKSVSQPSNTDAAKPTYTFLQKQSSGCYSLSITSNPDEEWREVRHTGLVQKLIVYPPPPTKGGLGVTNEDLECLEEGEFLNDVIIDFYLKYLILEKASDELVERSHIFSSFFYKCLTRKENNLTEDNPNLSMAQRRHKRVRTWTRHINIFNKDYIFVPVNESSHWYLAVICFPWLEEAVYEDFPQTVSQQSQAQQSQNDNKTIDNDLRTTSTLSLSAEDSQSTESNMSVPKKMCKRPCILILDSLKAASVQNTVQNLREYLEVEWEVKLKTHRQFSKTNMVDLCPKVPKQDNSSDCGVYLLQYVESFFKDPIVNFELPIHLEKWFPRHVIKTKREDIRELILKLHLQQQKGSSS

## CCCCCc1nnc(NC(=O)Cc2cccs2)s1
[1]
  IC50: 6.28 µM (active)
[2]
  IC50: 12.5 µM (active)
[3]
  IC50: 98.6 µM (active)
[4]
  IC50: < 1.56 µM (active)
[5]
  IC50: > 50 µM (not active)
[6]
  IC50: 21.4 µM (active)
[7]
  IC50: 17.2 µM (active)
[8]
  IC50: 3.73 µM (active)

## CC(=O)NC(c1cccs1)c1cc(F)c2cccnc2c1O (stereo unspecified)
[9]
  AC50: 7.74 µM (active)
[10]
  AC50: 13 µM (active)
[11]
  AC50: 1.58 µM (active)
[12]
  AC50: 1.67 µM (active)
[13]
  AC50: 2.94 µM (active)
[14]
  AC50: 5.16 µM (active)

## CC1C/C(=C/c2cccn2C)C(=O)/C(=C/c2cccn2C)C1 (stereo unspecified)
[15]
  IC50: > 49.7 µM (inactive)
[16]
  EC50: > 99 µM (inactive)
[17]
  IC50: 4.39 µM (active)
[18]
  EC50: > 99 µM (inactive)

## CCCCc1ccc2nc(NC(=O)c3cc(Br)cs3)sc2c1
[19]
  IC50: > 99 µM (inactive)
[20]
  IC50: > 99 µM (inactive)
[21]
  IC50: > 99 µM (inactive)
[22]
  IC50: > 99 µM (inactive)

## COc1cc(OC)cc(-c2nc(/C=C/c3ccccc3)no2)c1
[19]
  IC50: > 99 µM (inactive)
[20]
  IC50: > 99 µM (inactive)
[21]
  IC50: > 99 µM (inactive)
[22]
  IC50: > 99 µM (inactive)
